In assay [1] the target is Asp-2 (Homo sapiens, UniProt P56817). The assay can be described thus: Asp-2 Inhibitory Assay. It counts as biochemical. Conditions: FAM-[SEVNLDAEFK]-TAMRA substrate, pH 4.5, 1 h at room temperature, fluorescence; read-out: inhibition (Asp2), Assay (I). The protocol: (I) Asp-2 Inhibitory Assay
(§1) For each compound being assayed, in a 384 well plate, is added:—
(§2) a) 1 μl of a DMSO solution of the test compound (IC50 curve uses ten 1 in 2 serial dilutions from 500 μM).
This is prepared by diluting 2 ml of a 2 mM DMSO solution of the substrate into 400 ml of buffer (100 mM Sodium acetate pH=4.5, 1 l Milli-Q water, 0.06% Triton X-100 (0.5 ml/l), pH adjusted to 4.5 using glacial acetic acid). Aminomethyl fluorescein (FAM) and tetramethyl rhodamine (TAMRA) are fluorescent molecules which co-operate to emit fluorescence at 535 nm upon cleavage of the […] peptide.
c) 10 μl enzyme solution. This is prepared by diluting 16 ml of a 500 nM enzyme solution into 384 ml of buffer (prepared as above).
(§3) Blank wells (enzyme solution replaced by buffer) are included as controls on each plate. Wells are incubated for 1 h at room temperature and fluorescence read using a Tecan Ultra Fluorimeter/Spectrophotometer (485 nm excitation, 535 nm emission).

The target of assay [2] is Cathepsin D (Homo sapiens, UniProt P07339). The assay can be described thus: Cathepsin D Inhibitory Assay. It counts as biochemical. The note with it: FAM-[SEVNLDAEFK]-TAMRA substrate, pH 4.5, 1 h at room temperature, fluorescence; read-out: inhibition (CatD), Assay (II). The protocol: (II) Cathepsin D Inhibitory Assay
as §1, §2
This is prepared by diluting 2 ml of a 2 mM DMSO solution of the substrate into 400 ml of buffer (100 mM Sodium acetate pH=4.5, 1 l Milli-Q water, 0.06% Triton X-100 (0.5 ml/l), pH adjusted to 4.5 using glacial acetic add).
c) 10 μl enzyme solution. This is prepared by diluting 1.6 ml of a 200 unit/ml (in 10 mM HCl) enzyme solution into 398.4 ml of buffer (prepared as above).
as §3

Values joined by “and” are separate entries in the source; they are usually repeats but may differ in a detail not shown here. Equal values may be shown once. Where a name gives a salt, the structure may show the parent alone.

Chain of Asp-2 (P56817 46-501): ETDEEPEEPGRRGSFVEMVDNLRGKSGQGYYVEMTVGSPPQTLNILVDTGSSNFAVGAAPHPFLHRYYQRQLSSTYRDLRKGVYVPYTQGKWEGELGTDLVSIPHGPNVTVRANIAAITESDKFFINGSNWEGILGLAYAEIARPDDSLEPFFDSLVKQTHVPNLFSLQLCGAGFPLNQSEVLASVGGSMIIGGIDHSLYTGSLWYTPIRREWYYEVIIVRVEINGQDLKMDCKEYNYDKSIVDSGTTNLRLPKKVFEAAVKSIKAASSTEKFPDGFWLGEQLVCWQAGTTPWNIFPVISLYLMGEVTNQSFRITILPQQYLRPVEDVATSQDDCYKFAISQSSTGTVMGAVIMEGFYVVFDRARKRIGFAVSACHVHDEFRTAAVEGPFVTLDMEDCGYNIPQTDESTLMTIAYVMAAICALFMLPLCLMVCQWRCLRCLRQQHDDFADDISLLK
Chain of Cathepsin D (P07339 65-412, species assumed): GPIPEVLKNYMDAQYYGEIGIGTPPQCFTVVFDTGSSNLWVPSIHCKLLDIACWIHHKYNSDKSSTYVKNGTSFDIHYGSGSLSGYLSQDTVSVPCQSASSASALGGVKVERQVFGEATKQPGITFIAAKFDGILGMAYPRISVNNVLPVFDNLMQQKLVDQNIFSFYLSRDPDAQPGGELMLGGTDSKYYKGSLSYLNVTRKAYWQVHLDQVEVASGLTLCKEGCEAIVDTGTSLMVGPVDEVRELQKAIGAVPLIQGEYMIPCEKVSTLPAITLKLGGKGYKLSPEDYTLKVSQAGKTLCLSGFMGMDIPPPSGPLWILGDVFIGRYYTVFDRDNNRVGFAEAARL

Take `CS(=O)(=O)N(c1cccc(C#N)c1)c1cccc(C(=O)N[C@@H](Cc2ccccc2)[C@H](O)CNCc2cccc(C(F)(F)F)c2)c1` [Example E17, N-[(1S,2R)-1-Benzyl-2-hydroxy-3-(3-trifluoromethyl-benzylamino)-propyl]-[(3-cyano-phenyl)-methanesulfonyl-amino]-benzamide]: the values for the IC50 in assay [1] and in assay [2] were 0.001 to 0.1 µM and 0.2 to 2.5 µM, respectively.

For the molecule `C[C@H](NC[C@@H](O)[C@H](Cc1ccccc1)NC(=O)c1cc(N2CCCC2=O)cc(N(c2ccccc2)S(C)(=O)=O)c1)C(=O)NC1CCCCC1` [Example E41], the IC50 was 0.001 to 0.1 µM and 0.001 to 0.01 µM in assay [1]; 0.2 to 2.5 µM and 0.4 to 1 µM in assay [2].

As to `C#Cc1cc(C(=O)N[C@@H](Cc2ccccc2)[C@H](O)CNCc2cccc(C(F)(F)F)c2)cc(N(c2ccccc2)S(C)(=O)=O)c1` [Example E46, N-[(1S,2R)-1-Benzyl-2-hydroxy-3-(3-trifluoromethyl-benzylamino)-propyl]-ethynyl-(methanesulfonyl-phenyl-amino)-benzamide], the values for the IC50 in assay [1] and in assay [2] were 0.001 to 0.1 µM and 0.2 to 2.5 µM, respectively.

`CS(=O)(=O)N(c1ccccc1)c1cc(C(=O)N[C@@H](Cc2ccccc2)[C@H](O)CNCc2cccc(OC(F)(F)F)c2)cc(N2CCCC2=O)c1` [Example E55, formate salt]: the IC50 is 0.001 to 0.1 µM and 0.001 to 0.01 µM in assay [1]; 0.2 to 2.5 µM and 0.4 to 1 µM in assay [2].

As to `CS(=O)(=O)N(c1ccccc1)c1cccc(C(=O)N[C@@H](Cc2ccccc2)[C@H](O)CNCc2cccc(C(F)(F)F)c2)c1F` [Example E56, formate salt], the values for the IC50 in assay [1] and in assay [2] were 0.001 to 0.1 µM and 0.2 to 2.5 µM, respectively.

With `CCSc1cc(C(=O)N[C@@H](Cc2ccccc2)[C@H](O)CNCc2cccc(C(F)(F)F)c2)cc(N(c2ccccc2)S(C)(=O)=O)c1` [Example E60], the IC50 is 0.001 to 0.1 µM and 0.001 to 0.01 µM in assay [1]; 0.2 to 2.5 µM and 0.4 to 1 µM in assay [2].

`CS(=O)(=O)N(c1cccc(C#N)c1)c1cc(C(=O)N[C@@H](Cc2ccccc2)[C@H](O)CNCc2cccc(C(F)(F)F)c2)cc(N2CCCC2=O)c1` [Example E77, formate salt]: the IC50 in assay [1] was 0.001 to 0.1 µM and 0.001 to 0.01 µM; in assay [2] it was 0.2 to 2.5 µM and 0.4 to 1 µM.

For the molecule `C=C(C)c1cc(C(=O)N[C@@H](Cc2ccccc2)[C@H](O)CNCc2cccc(C(F)(F)F)c2)cc(N(c2ccccc2)S(C)(=O)=O)c1` [Example E83, N-[(1S,2R)-Benzyl-hydroxy-3-(3-trifluoromethyl-benzylamino)-propyl]-3-isopropenyl-5-(methanesulfonyl-phenyl-amino)-benzamide], the IC50 fell in the range of 0.001 to 0.1 µM in assay [1] and 0.2 to 2.5 µM in assay [2].

The record behind these values is US20060211740A1, “Novel compounds” (priority 2003, published 2006).
